These results are taken from patent US6818413B2, “Fluorescence-based high throughput screening assays for protein kinases and phosphatases” (Pharmacia and Upjohn Company, priority 1997, dated 2004).

The structures appear in SMILES notation.

This experiment deals with MBL Monoclonal anti-phosphotyrosine antibody (clone 6D12). The experiment is described as follows: Competitive displacement of P-Tyr-F from MBL antibody, fluorescence quenching. The format is binding. Particulars: displacement of P-Tyr-F 1.7 nM from MBL antibody 7.1 nM sites, nM sites (normality), read-out: MBL Monoclonal Kd, nM Φ. The protocol:
FIGS. 5A and 5B: […] MBL antibody, 7.1 nM sites and P-Tyr-F, 1.7 nM were preincubated, and displacement initiated by the addition of a concentrated solution of phosphotyrosine. The increase in emission intensity and decrease in FP were monitored as a function of added phosphoryltyrosine. The data were analyzed as described in FIG. 3. FIGS. 7A, 7B, 7C, and 7D: FIGS. 7A, 7B, 7C, and 7D are graphs showing the competitive displacement of P-Tyr-F from MBL antibody by phosphorylated JAK-2 peptide substrates JAK-2(a) (FIGS. 7A and 7B) and JAK-2(b) (FIGS. 7C and 7D). All procedures were as described in FIG. 5. For both peptides, fixed antibody=7.1 nM sites and P-Tyr-F=1.7 nM. Antibody binding to the fluoresceinated phosphorylamino acids was monitored by adding successive small volumes of the antibody stock solution to a cuvette containing a fixed amount of fluoresceinated phosphorylamino acid in two milliliters of pH 7.4 buffer (25 mM Tris and 25 mM NaCl adjusted to pH 7.4 with HCl). The fluorescence polarization, anisotropy, and the intensity—the sum of vertically and horizontally polarized emissions—were recorded one minute after each addition. The dilution produced by the addition of the antibody necessitated a slight correction for both the concentrations and the intensity readings but not for the polarization since the latter is independent of the fluorophore concentration. […]

For the compound `NC(Cc1ccc(OP(=O)(O)O)cc1)C(=O)O` (stereo not shown) [Phosphoryltyrosine], the Kd amounted to 5.4 ± 0.5 nM.

As a reminder, the Kd is the equilibrium constant for the complex coming apart.
